# Test results from the supplement of paper PMC10702517.
# ± gives the standard deviation.
# How the values were obtained:
# [1] = chemical recovery by SPE of plasma after PDMS sampling; higher = better extraction; conditions: pooled human plasma, extraction method: HLB SPE of plasma after PES
# [2] = chemical recovery from spiked human plasma; higher = better extraction; conditions: pooled human plasma
# [3] = extraction method: SPE only (HLB 96-well), PES comparison experiment
# [4] = extraction method: PES+SPE (3 d PDMS equilibration then HLB SPE)
# [5] = extraction method: SPE only (HLB 96-well)
# [6] = extraction method: solvent precipitation (ACN + hexane)
# 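Wherever chemical recovery by SPE of plasma after PDMS sampling is given: over 400 spiked chemicals quantified by LC-HRMS or GC-HRMS via internal standard calibration, recovery relative to spike mix added to unspiked plasma extract to correct matrix effects.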
Structure (SMILES),chemical recovery by SPE of plasma ([1]; equilibration time (d): 1) [%],chemical recovery by SPE of plasma ([1]; equilibration time (d): 3) [%],chemical recovery by SPE of plasma ([1]; equilibration time (d): 6) [%],"chemical recovery [2, 3] [%]","chemical recovery [2, 4] [%]","chemical recovery [2, 5] [%]","chemical recovery [2, 6] [%]"
C[C@H]1C[C@@H]2[C@H]([C@@H](O)C[C@@]3(C)[C@H]2CC[C@]3(O)C(=O)CO)[C@@]2(C)C=CC(=O)C=C12 [6alpha Methylprednisolone],59.2 ± 5.8,57.1 ± 4.7,51.1 ± 6.5,53.6 ± 7.5,,,
C=Cc1c2ccccc2cc2ccccc12 [9-Vinylanthracene],3.04 ± 5.3,3.05 ± 5.3,2.42 ± 4.2,,42.05 ± 0.27,2.31 ± 0.48,
"NC(=O)N1c2ccccc2C(O)C(O)c2ccccc21 (stereo not given) [10,11-Dihydro-10,11-dihydroxycarbamazepine]",,69.9 ± 7.5,,48.4 ± 4.8,45.5 ± 5.2,44.9 ± 4.7,71 ± 2.8
C1=Cc2cccc3cccc1c23 [Acenaphthylene],,10.5 ± 4.6,2.28 ± 8,,,3.51 ± 0.93,
CC1=CC(=O)NS(=O)(=O)O1 [Acesulfame],,1.86 ± 0.99,8.53 ± 4.2,,11.2 ± 1.4,19.4 ± 5.8,93.4 ± 4.7
CC(=O)Nc1ccc(S(=O)(=O)Nc2cc(C)on2)cc1 [Acetyl-sulfamethoxazole],51.7 ± 7.1,51.4 ± 3.5,49.3 ± 6.2,51.5 ± 4.3,42.7 ± 3.9,37.2 ± 3.4,72 ± 3.1
CCCSc1ccc2[nH]c(NC(=O)OC)nc2c1 [Albendazole],5.86 ± 0.39,3.53 ± 0.36,2.28 ± 0.42,37.8 ± 5.9,3.61 ± 0.98,35.7 ± 3.7,59.7 ± 5.1
CCCCCCCCCCCCCC(=O)NCCC[N+](C)(C)CCCS(=O)(=O)[O-] [Amidosulfobetaine-14],25.7 ± 5.3,26.1 ± 6.5,25.2 ± 4.2,36 ± 9.4,,,74.8 ± 5
COc1cc(OC)nc(NC(=O)NS(=O)(=O)N(C)S(C)(=O)=O)n1 [Amidosulfuron],46.5 ± 7.7,49.1 ± 5.5,45.9 ± 6.6,49.1 ± 5.6,46.6 ± 16,41 ± 4.5,70.2 ± 3.1
CC(C)N1C(=O)c2ccccc2NS1(=O)=O [Bentazone],54.8 ± 8.1,58 ± 4.1,54.7 ± 3.1,63.8 ± 5.6,44.5 ± 3.6,41.7 ± 3.2,75.2 ± 2.8
c1ccc2cc3c(ccc4ccccc43)cc2c1 [Benz(a)anthracene],,8.41 ± 7.3,4.31 ± 7.5,,,1.06 ± 0.29,20.2 ± 2.8
Nc1ccc(-c2ccc(N)cc2)cc1 [Benzidine],6.25 ± 0.9,6.11 ± 1.1,3.81 ± 0.98,5.89 ± 3,0.64 ± 0.073,13.2 ± 2,38.3 ± 7.4
c1ccc2c(c1)cc1ccc3cccc4ccc2c1c34 [Benzo(a)pyrene],1.26 ± 1.1,,,,,4.36 ± 4,99.1 ± 12
c1ccc2c(c1)c1cccc3ccc4cccc2c4c31 [Benzo(e)pyrene],1.45 ± 1.3,1.37 ± 1.2,1.06 ± 1.8,,,2.35 ± 0.68,57.7 ± 6.1
COc1cc(O)c(C(=O)c2ccccc2)cc1S(=O)(=O)O [Benzophenone-4],41 ± 11,48.7 ± 3.4,43.3 ± 4.4,44.4 ± 4.8,45.5 ± 3.2,43.3 ± 3.8,72.2 ± 2.3
CCCCCCCCCCCC[N+](C)(C)Cc1ccccc1 [Benzyldimethyldodecylammonium],39.1 ± 6.7,43.2 ± 10,,46.5 ± 13,,,
O=C(O)c1cc(Oc2ccc(Cl)cc2Cl)ccc1[N+](=O)[O-] [Bifenox free acid],,40.7 ± 16,,36.6 ± 6.7,38.2 ± 3.9,30.6 ± 3.6,65.8 ± 3.1
Oc1c(Br)cc(Cl)cc1Cc1cc(Cl)cc(Br)c1O [Bromochlorophen],34.8 ± 10,,,32.3 ± 8,34.8 ± 6.3,28.9 ± 6,34.9 ± 2
O=P(O)(Oc1ccccc1)Oc1ccccc1 [Diphenylphosphate],46.4 ± 13,56 ± 6.6,49.8 ± 8.2,47 ± 7,,44.6 ± 4.8,
O=c1[nH]c2ccccc2n1CCCN1CCC(n2c(=O)[nH]c3cc(Cl)ccc32)CC1 [Domperidone],44.4 ± 5.1,46.3 ± 3.7,42.3 ± 4.4,44.6 ± 4.9,,,

# Results, then the molecule that gave them:
chemical recovery by SPE of plasma ([1]; equilibration time (d): 1) [%],chemical recovery by SPE of plasma ([1]; equilibration time (d): 3) [%],chemical recovery by SPE of plasma ([1]; equilibration time (d): 6) [%],"chemical recovery [2, 3] [%]","chemical recovery [2, 4] [%]","chemical recovery [2, 5] [%]","chemical recovery [2, 6] [%]",Structure (SMILES)
44.1 ± 5.1,48.6 ± 5.5,44.2 ± 1.7,47.5 ± 7.2,,,,CCCCCOC(=O)Nc1nc(=O)n([C@@H]2O[C@H](C)[C@@H](O)[C@H]2O)cc1F [Capecitabine]
47.2 ± 6.6,52.3 ± 5.3,47.7 ± 2.9,48.6 ± 6.5,69.9 ± 7.9,50.9 ± 2.3,,O=C(O)COCCN1CCN(C(c2ccccc2)c2ccc(Cl)cc2)CC1 (stereo not given) [Cetirizine]
22 ± 3.3,24.4 ± 2.8,22.3 ± 2.2,44.1 ± 6.5,30.2 ± 4.1,45.1 ± 2.3,69.1 ± 2.1,CC[C@H]1OC(=O)[C@H](C)[C@@H](O[C@H]2C[C@@](C)(OC)[C@@H](O)[C@H](C)O2)[C@H](C)[C@@H](O[C@@H]2O[C@H](C)C[C@H](N(C)C)[C@H]2O)[C@](C)(OC)C[C@@H](C)C(=O)[C@H](C)[C@@H](O)[C@]1(C)O [Clarithromycin]
53.1 ± 9.5,58.7 ± 6.2,51.5 ± 4.8,61 ± 5.4,44.8 ± 1.8,44.7 ± 2.7,66.6 ± 7.9,CC(C)(Oc1ccc(Cl)cc1)C(=O)O [Clofibric acid]
56.4 ± 6.3,57.1 ± 3.3,54.9 ± 6.9,49.9 ± 3.3,50.8 ± 2.9,38.4 ± 3.9,71.9 ± 3.3,CC[N+](CC)(CC(=O)Nc1c(C)cccc1C)Cc1ccccc1 [Denatonium]
,23.6 ± 2.8,28.2 ± 8.7,45.2 ± 5,42.4 ± 2.5,40.3 ± 3.8,79.6 ± 8.1,Cc1cccc(C)c1NC(=O)CS(=O)(=O)O [Dimethachlor CGA369-873]
45.5 ± 8.5,51.4 ± 4.4,45.4 ± 4.1,49.6 ± 3.4,,,,COCC(C)N(C(=O)CS(=O)(=O)O)c1c(C)csc1C (stereo not given) [Dimethenamid ESA]
52.2 ± 8.1,58.9 ± 3.8,51.8 ± 2.6,51.7 ± 4.2,,,,COCC(C)N(C(=O)C(=O)O)c1c(C)csc1C (stereo not given) [Dimethenamid OA]
49.8 ± 6.7,54.2 ± 3.9,49.3 ± 4,52.4 ± 4.3,44.6 ± 2.1,45.3 ± 3,46.7 ± 3.3,COC(=O)c1cc(C(=O)OC)cc(S(=O)(=O)O)c1 [Dimethyl-5-sulfoisophthalate]
